Source: paper PMC8869242 (Biomedicines, 2022)
Where two headings read alike, the source gives them in different places.

Key:
[1] = test system: VEGF secretion by MDA-MB-231 cells; assay: VEGF production, Human VEGF Quantikine ELISA of cell culture medium; type: cell-based; conditions: MDA-MB-231, 5–20 µM, 12 h
Experimental: MDA-MB-231 cells were seeded in 96-well microplates at the cell density 1.5 × 10^4 cells/cm^2 (final volume 200 µL/well) and left 24 h to attach. […] VEGF concentration in cell culture medium was determined in undiluted samples in duplicate using the Human VEGF Quantikine ELISA Kit (R&D Systems Inc., Minneapolis, MN, USA) according to the manufacturer’s protocol. In brief, 200 μL of conditioned media was added to a 96-well microplate pre-coated with monoclonal antibody for human VEGF and the plate was incubated for 2 h. After washing with wash buffer, enzyme-linked polyclonal antibody specific for human VEGF was added, followed by incubation for 2 h. The plate was washed to remove unbound antibody-enzyme reagent, substrate solution was added and incubated for 30 min and the reaction was terminated by the addition of the stop solution, producing a yellow solution. The optical density at 450 nm with wavelength correction at 540 nm was measured using a Synergy HT microplate reader (BioTek, Winooski, VT, USA). The concentration of VEGF was interpolated from the standard curve (15.6–1000 pg/mL) prepared in parallel.

[2] = test system: chicken embryo chorioallantoic membrane (CAM); assay: In vivo CAM assay (neovascularization); conditions: for CAM early steps of angiogenesis: number of nodes, junctions and segments / CAM later steps of angiogenesis: total length, total branching length and total segment length: 2 to 8 µM
Experimental: The chicken embryo chorioallantoic membrane (CAM) assay was used to study the effect of tested drugs on neovascularization, as described elsewhere. Briefly, fertilized chicken eggs were incubated at 37.5 °C in a humidified atmosphere with agitation. After 3 days of incubation, 2.5 mL of albumen was removed to detach developing CAM from the shell. A window in the eggshell was cut off to expose the embryo, and then, the eggshell was sealed with paraffin. Incubation of fertilized eggs continued until day 9, when the windows were unsealed and four paper disks previously sterilized and pre-treated with hydrocortisone ([…] to avoid inflammatory responses) were placed in direct contact with CAM in each egg (3 PBS-soaked disks and 1 VEGF-soaked (10 ng/mL) disk), and windows were re-sealed with paraffin. […] The remaining two disks were used as negative/vehicle (treated with PBS) and positive (treated with VEGF) controls. The eggs were further incubated two more days, and at […], the disks bound to the CAM were removed, placed in PBS and imaged using a contrast-phase microscope (Motic® AE200 inverted microscope, Spectra Services, VWR International) (with a 4X magnification) coupled to a Moticam 5 digital camera. Images were analyzed using the Angiogenesis Analyzer for Fiji.

MDA-MB-231 breast tumors [3] = assay: Subcutaneous in vivo breast cancer xenograft study, tumor growth; parameters: species or system mice; conditions: i.p. 5 consecutive days, Pd2Spm 5 mg/kg/day, cisplatin 2 mg/kg/day; for tumor growth reduction (versus the vehicle group): end of experiment (day 39 post-implantation); for average tumor volumes compared to vehicle-treated control mice: p < 0.05
Experimental: Female CBA nude (N:NIH(S)II-nu/nu) mice (6–7 weeks old, 21 animals in total) with combined immunodeficiency were purchased from i3S Animal Facility (Porto, Portugal). Animals were acclimatized at ICBAS-UP Rodent Animal House Facility (Porto, Portugal) at least one week prior to the experiments, were randomly distributed into groups of three per individually ventilated cage and were housed under controlled specific-pathogen-free (SPF) environmental conditions (temperature 22.5 ± 1.5 °C; relative humidity 50 ± 10%; 12 h light/dark cycle) with ad libitum access to water and standard pellet food (4RF21, Mucedola, Italy). Environmental enrichment included corncob bedding, paper roll tube and one large sheet of tissue paper for nesting. Animals were monitored daily for health status and welfare.

[4] = Tolerability in tumor-bearing mice (body weight, behavior, relative organ weight, histopathology, deaths)
MCF-12A cells = assay: Cell proliferation assay (label-free live cell counting), MCF-12A; type: cell-based, human; conditions: for logIC50 ± SEM: n = 4
MDA-MB-231 breast tumors [5] = assay: Histology, Ki-67 immunohistochemistry and TUNEL assay of xenograft tumors; type: in vivo, mice; conditions: Pd2Spm 5 mg/kg/day, cisplatin 2 mg/kg/day, versus vehicle
Experimental: For the immunohistochemical study, tissue sections were dewaxed and rehydrated. Slides were submitted to […] by immersion in 10% retrieval solution (Dako) and kept in a water bath at 100 °C for 20 min. After blocking of non-specific staining, slides were incubated with primary antibody for Ki-67 (1:50 dilution, clone MIB-1, Dako) overnight at 4 °C. Slides were then stained with Novolink Polymer Detection Systems (Leica Biosystems Inc., Buffalo Grove, IL, USA) following manufacturer’s instructions, counterstained with hematoxylin and permanently mounted. The nuclear Ki-67 staining was analyzed using Fiji’s high-throughput automatic quantitation with Andy’s Algorithm pipeline, as described elsewhere. The immunoreactivity was evaluated, counting at least 600 nuclei/field from 5 representative fields of the lesion at high magnification, avoiding necrotic areas. The ratio of Ki-67 positive nuclei per all counted nuclei was expressed as a percentage (Ki-67 proliferation index).
The paraffin-embedded tumor sections were deparaffinized, rehydrated through a graded series of ethanol and double distilled water and then stained with In Situ Cell Death Detection Kit (Roche Diagnostics GmbH, Mannheim, Germany) as per manufacturer’s instructions. Apoptosis was quantified at single-cell level by counting the number of cells positive for terminal deoxynucleotidyl transferase (TdT) dUTP nick-end labeling (TUNEL-positive cells). Briefly, tumor sections were incubated with 20 µg/mL proteinase K solution (in 10 mM Tris/HCl, pH 7.4–8) for 30 min at 37 °C. Slides were washed and stained with TUNEL reaction mixture (mixture of terminal deoxynucleotidyl transferase with labeled nucleotides) for 60 min at 37 °C in the dark followed by three washes. Slides were mounted with […] Antifade Mounting Medium with DAPI, and coverslips were sealed. At least twenty nonoverlapping high-power microscope fields of each tumor section were captured while avoiding areas with central necrosis. Fluorescence images were acquired using the LionHeart automated microscope at Ex: 520–560 nm and Em: 570–620 nm.

[6] = Pd2Spm 5 mg/kg/day, cisplatin 2 mg/kg/day
[7] = tumor-bearing mice, i.p. 5 days, Pd2Spm 5 mg/kg/day, cisplatin 2 mg/kg/day
[8] = 48 h of incubation, n = 4, read-out: IC50 in µM [95% CI]
[9] = 72 h of incubation, n = 4, read-out: IC50 in µM [95% CI]
[10] = organ weight/body weight × 100%, mean ± SEM, n = 7, cisplatin 2 mg/kg/day, Pd2Spm 5 mg/kg/day

SMILES	VEGF secretion in cell culture medium [1]	CAM early steps of angiogenesis: number of nodes, junctions and segments [2]	CAM later steps of angiogenesis: total length, total branching length and total segment length [2]	tumor growth reduction (versus the vehicle group) (MDA-MB-231 breast tumors [3]) [%]	average tumor volumes compared to vehicle-treated control mice (MDA-MB-231 breast tumors [3])	liver histopathology (glycogen accumulation, PAS) [4, 6]	body weight [4, 7]	logIC50 ± SEM (MCF-12A cells; 48 h of incubation)	IC50 (MCF-12A cells; [8]) [µM]	logIC50 ± SEM (MCF-12A cells; 72 h of incubation)	IC50 (MCF-12A cells; [9]) [µM]	TUNEL-positive cells in tumors (DNA damage) (MDA-MB-231 breast tumors [5])	mitotic count in tumors (MDA-MB-231 breast tumors [5])	further results
N.N.[Cl][Pt][Cl] [Cisplatin, cis-dichlorodiammine platinum(II), reference compound]	inhibited VEGF secretion in cell culture medium in a dose-dependent manner	decrease, in a dose-dependent manner	reduced, in a dose-dependent manner	56.6	significantly lower	swollen, pale and finely vacuolated cytoplasm due to intracellular accumulation of glycogen	slower body weight recovery	−5.988 ± 0.029	1	−5.981 ± 0.026	1	significant increase	mitotic count of vehicle-treated animals was significantly increased compared to cisplatin- and Pd2Spm-treated groups	kidney histopathology (perirenal adipose tissue) ([4]; compared to vehicle-treated animals): decreased perirenal adipose tissue; logIC50 ± SEM (MCF-12A cells; 24 h of incubation): −5.510 ± 0.062; IC50 (MCF-12A cells; 24 h of incubation, n = 4, read-out: IC50 in µM [95% CI]): 3.1 µM
NCCCNCCCCNCCCN.[Cl][Pd][Cl].[Cl][Pd][Cl] [Pd2Spm, dinuclear palladium(II)-spermine chelate]	inhibited VEGF secretion in cell culture medium in a dose-dependent manner	decrease, in a dose-dependent manner	reduced, in a dose-dependent manner	43.3	significantly lower	not observed	did not show changes in body weight	−4.039 ± 0.023	91.5	−4.048 ± 0.068	89.5	significant increase	mitotic count of vehicle-treated animals was significantly increased compared to cisplatin- and Pd2Spm-treated groups	angiogenesis in CAM at single concentration ([2]; 8 µM (4.46 µg/mL)): significantly inhibited angiogenesis; deaths during treatment ([4]; cumulative dose of 25 mg/kg (5 mg/kg/day for 5 consecutive days)): no associated deaths; Relative Organ Weight (%), Brain [4, 10]: 1.79 ± 0.16%; Relative Organ Weight (%), Heart [4, 10]: 0.53 ± 0.06%; Relative Organ Weight (%), Kidneys [4, 10]: 1.43 ± 0.10%; Relative Organ Weight (%), Liver [4, 10]: 6.14 ± 0.29%; Relative Organ Weight (%), Lungs [4, 10]: 0.77 ± 0.08%; Relative Organ Weight (%), Spleen [4, 10]: 0.32 ± 0.11%; signs of general toxicity [4, 7]: no such adverse effects were observed; growth inhibition at the highest concentration (MCF-12A cells; 100 µM, compared to same dosage of cisplatin): did not produce a maximum growth inhibition; IC50 (MCF-12A cells; 24-72 h, read-out: IC50 values (range over incubation times)): 89.5 to 229 µM; Ki-67 index of tumors (MDA-MB-231 breast tumors [5]): significantly decreased
